Measurements published in patent US20250327770A1, “Protein-Derived Peptide Multiplexes for Biomimetic Detection of VOC Profiles” (University of Washington, priority 2022, published 2025).
Entries after “also recorded” stand apart in the source; their conditions may differ. Values belong to the sequence of their own block, whether it stands above or below them.

Key:
[1] = Peptide-sensitized CNT-FET sensor response to ethyl butyrate; settings: gate voltage −1 V
Protocol: Sensors were placed in a box chamber that allowed gas flow into and out of the enclosure while allowing micromanipulator probes to be positioned on the sensor chip contact pads. Gas flow impinged directly above the sensor chip with a continuous flow rate of 50-60 SCCM as controlled by a flowmeter (Matheson, model FM-1050, Montgomeryville, PA, USA).
After placing the sensor chip into the gas chamber, a nitrogen purge of 2-3 minutes at 4 to 5 PSI in the gas line was performed in order to flush out ambient air trapped within the box enclosure. Transfer curve measurements were performed to determine sensor characteristics. The chip was then equilibrated in humidified N2 (“wet N2”) for 30-60 min by flowing in nitrogen gas that has passed through a gas bubbler filled with water. Sensor measurements were taken at this point to establish sensor baseline signal.
For peptide sensitization of the CNT sensing channel, the chip was removed from the gas chamber and dropcasted with 1.5 μL 100 μM peptide diluted in di-H2O. Peptide solution was pipetted directly onto the CNT sensing regions of the multiplexed chip and incubated for 60 minutes in a humidified environment to prevent evaporation. Devices were then spin dried by centrifugal force at 2,000 g. Sensor measurements were taken again after replacing the chip back into the gas chamber, purging with N2, and equilibrating in wet N2 for 30-60 min. Finally, the peptide-functionalized chip was exposed to humidified ethyl butyrate for 60-90 min before sensor measurements were taken.
Transfer curves were generated for each of the following experimental conditions: 1) Bare CNT sensors (i.e., non-functionalized) under non-humidified N2 gas exposure; 2) non-functionalized sensors under humidified N2 gas exposure; 3) peptide-functionalized sensors under humidified N2 gas exposure; and 4) peptide-functionalized sensors exposed to ethyl butyrate in humidified N2 carrier gas. Signal response was based on normalized source-drain current values obtained from the reverse sweep of the transfer curve at a gate potential of −1 V (Vg=−1 V), which was determined to be within the subthreshold voltage region for ethyl butyrate-exposed, peptide-functionalized sensors. […] Signal responses were normalized to their corresponding width-to-length CNT sensing channel dimensions. Mean signal response for each condition was calculated from a total of 9 to 13 technical replicates measured across two independent experiments (N=2).
Two VOC and C-binding peptides were used in order to functionalize CNT-FET devices and test their sensitivity to ethyl butyrate:MmedPep1-GrBP and BhorPep1-GrBP, which were predicted to bind to ethyl butyrate and a range of aldehydes and alkanes, respectively. […] However, the effect was reversed under ethyl butyrate exposure for CNT channels functionalized with MmedPep1-GrBP (FIG. 7B). Specifically, upon exposure to 378 mM ethyl butyrate solution (5% v/v in H2O), MmedPep1-GrBP-sensitized CNT-FET sensors measured 1.21±0.43 μA of current, compared to 0.20±0.9 μA for the aldehyde-sensitive BhorPep1-GrBP (p<0.001), as shown in FIG. 7C.

QCM VOC binding, octanal = settings: wet N2 gas stream
Protocol: (§1) VOC binding validation by QCM utilized chimeric molecular constructs tethered to a substrate in a VOC-doped gas stream. Gold QCM substrates (Qsense, Phoenix, AZ, USA) were coated with 10 nm thick carbon film by evaporation (SPI, West Chester, PA, USA). 10 μL of 1 μM aqueous peptide was deposited and incubated for 1 hour at room temperature, and then the sample was dried in a nitrogen gas stream. A KSV model Z500 QCM (Qsense, Phoenix, AZ, USA) was used to measure VOC binding to bare carbon (control), and peptide-coated substrates. Humidified nitrogen was measured as the baseline, then VOC was introduced by bubbling nitrogen through the VOC/deionized water mixture. The difference in resonant frequency between wet nitrogen and VOC mixture was reported, in which lower frequency indicated an increase in mass on the substrate due to VOC molecules binding to the surface.
(§2) Each of the six synthesized peptides was then tested against eight VOCs. The VOCs were chosen to include the targeted VOCs for all synthesized chimeric molecular constructs, plus ethanol as a common non-target. […] VOC adsorption caused damping of the QCM sensor—therefore, a higher affinity surface would produce a greater reduction in resonant frequency upon exposure to the gas stream. The concentration of the target VOC for each peptide was 20 μM, 10× lower than non-targets at 200 μM.

QCM VOC binding, nonanal = settings: wet N2 gas stream
Protocol: as §1, §2

[2] = SPR adsorption of peptide onto carbon substrate; assay type: binding
Protocol: (§3) SPR (GE Healthcare, Biacore T200) was performed to validate specific adsorption of peptides onto a carbon substrate. Bare gold and carbon- and poly-L-lysine-functionalized substrates were used. Substrate fabrication used e-beam evaporation (CHA Industries, Solution Process Development System) of titanium (3-nm thick layer) then gold (47-nm thick layer) onto 1-cm^2 optical quality glass. A 20-nm thick carbon layer was sputtered (Kurt J. Lesker Company, Lab 18 Sputter System) onto the fabricated gold substrates at a rate of 10 Å per minute, and poly-L-lysine coatings were drop-cast incubated with 0.1% v/v poly-L-lysine for 30 minutes and rinsed with di-H2O, then air dried. A single-cycle kinetics curve was generated by sequential injection of MmedPep1-GBP peptide at 2-fold increasing concentrations up to 500 nM in buffer (100 mM KCl, 10 mM K+ phosphate). An injection flow rate of 30 μL/min and a temperature of 25° C. were used. Response values were plotted and fitted to a Langmuir isotherm curve by minimizing the sum of square differences between the dataset and the isotherm model.

[3] = SPR adsorption of peptide onto poly-L-lysine substrate; assay type: binding; settings: 500 nM peptide concentration
Protocol: as §3

[4] = SPR adsorption of peptide onto bare gold; assay type: binding; settings: 500 nM peptide concentration
Protocol: as §3

QCM VOC binding, ethanol = settings: wet N2 gas stream
Protocol: as §1, §2

[5] = QCM VOC binding, ethyl butyrate; settings: wet N2 gas stream
Protocol: as §1, §2

[6] = 378 mM ethyl butyrate solution (5% v/v in H2O), Vsd=−5 V

- octanal affinity (QCM) (QCM VOC binding, octanal): notable
Sequence: GIVLLATYEKIISIYFIFFGGGYSSY [BhorPep1-GrBP, chimeric construct from BhorOBPm2; targets aldehydes and alkanes]
- source-drain current upon ethyl butyrate exposure [1, 6]: 0.20±0.9 μA
- source-drain current upon ethyl butyrate exposure ([1]; Vds=−3 V): 0.038±0.020 μA
- CNT-FET signal response to ethyl butyrate exposure (in words) [1]: respond weakly

- nonanal affinity (QCM) (QCM VOC binding, nonanal): notable
Sequence: SHFVGGGYSSY [HcunPep1-GrBP, chimeric construct from HcunPBP3; target nonanal]

Sequence: VGARNGGGYSSY [MmedPep1-GrBP, target ethyl butyrate]
- SPR signal ([2]; 500 nM peptide concentration, carbon-coated gold surface): 158.4±44.1 RU
- substrate preference of adsorption (carbon vs gold, poly-L-lysine) ([2]; SPR): specific preference for the carbon substrate; also recorded: specific absorption
- SPR signal [3]: 6.5±2.9 RU
- SPR signal [4]: 18.4±1.7 RU
- source-drain current upon ethyl butyrate exposure [1, 6]: 1.21±0.43 μA
- source-drain current upon ethyl butyrate exposure ([1]; Vds=−3 V): 0.542±0.721 μA
- CNT-FET signal response to ethyl butyrate exposure (in words) [1]: robust signal response

- affinity for ethanol (QCM) (QCM VOC binding, ethanol): reduced affinity
- ethyl butyrate binding preference (QCM) [5]: strongly selective
Sequence: VGGGAGRGNGGGYSSY [MmedPep1s-GrBP, glycine spacer variant of MmedPep1-GrBP; target ethyl butyrate]
